One test deals with bone metastasis. The test can be described thus: Prophylactic treatment for bone metastasis in subject with triple negative breast cancer and increased c-MAF. The class given is in vivo. To be noted: 120 mg SC once monthly for 6 months, then every 3 months for 4 and a half years, with oral calcium and vitamin D. The procedure:
A tumor tissue sample is obtained from a subject diagnosed as having triple negative breast cancer. The sample is sectioned into thin slices of tissue and embedded in paraffin. Each paraffin section is mounted on a slide. The slides are incubated with anti-MAF antibody. For visualization and detection of antibodies bound to MAF, antibodies conjugated with fluorescent dye are used. The slides are visualized by providing excitation beams to the fluorescent dyes. Images of fluorescent signals are taken by fluorescent microscopes. The relative expression level of c-MAF in the tumor sample is obtained by comparing the fluorescent signal in the tumor sample to that of a reference sample. The intensity in the tumor sample is correlated with the intensity in the reference sample, wherein a higher intensity in the tumor sample compared to the reference sample correlates with an increased risk of the subject having primary breast cancer metastasis to the bone. Alternatively, 16q22-24 locus,16q23 locus or c-MAF gene amplification or translocation determined using an in situ hybridization technique or similar
Based on the prognosis of increased risk of bone metastasis, the subject is administered the anti-RANKL antibody Denosumab as a prophylactic treatment for bone metastasis. 120 mg of Denosumab is administered to the subject subcutaneously (SC) once monthly for 6 months. […]

Test [1] has as its system osteoclast differentiation of mouse bone marrow-derived precursor cells. Kind of test: Osteoclast differentiation from bone marrow cells with conditioned medium, TRAP technique. The class given is cell-based. To be noted: co-incubation with PTHLH antagonist peptide (7-34), 5 μg/ml (FIG. 11c). The procedure:
b) Assay of osteoclast differentiation from mouse bone marrow-derived precursor cells using conditioned medium originated from MCF7 parental cells or cells over-expressing any of the c-MAF isoforms (short—short isoform and long—long isoform). The number of osteoclasts is measured by means of the TRAP technique (>3 Multinucleated cells).
c) Bone marrow cells treated with 50:50 osteoclast differentiation and conditioned media (CM) parental, c-MAF short and Long-expressing parental cells and BoM2 bone metastatic MCF7 cell derivatives or without CM but with human PTHLH antagonist peptide (7-34)(5 μg/ml), The number of osteoclasts is measured by means of the TRAP technique (Ostoclasts are >3 Multinucleated cells, Highlighted by white arrows) and normalized to control.
Without a direct activity of c-MAF in providing bone metastasis functions to breast cancer cells, c-MAF may instead transcriptionally control the activity of genes promoting homing and bone remodeling capabilities to colonize the bone. PTHLH expression was under the control of c-MAF. An observation confirmed by qPCR analysis (FIG. 11a). Further, patient breast cancer metastasis (GSE14020) growing in the bone retained c-MAF expression compared to metastasis elsewhere (FIG. 11b). Moreover, 77% of metastasis expressing MAF and PTHLH above the average were bone metastasis (FIG. 11b). […]

Test [2] relates to c-MAF expressing MCF7 breast cancer cells. Kind of test: Bone metastasis of c-MAF expressing MCF7 cells injected intracardiacally, with or without PTHLH-AN. It is filed as in vivo, mouse. To be noted: 6 μg twice a day intraperitoneally in PBS, 47 days, vs PBS control (FIG. 11d,e). The procedure:
d) Parental, c-MAF short and long-expressing parental cells labeled with the luciferase gene were injected into the left ventricle of mouse and bone colonization was analyzed by in vivo bioluminiscent imaging. The mice injected with c-MAF short and long expressing parental cells were treated or not with PTHLH antagonist peptide (7-34) inoculated intraperitoneally (6 μg/animal) twice a day during the course of the experiment. The plot represents the total photon flux ex vivo at the experiment end point, which reflects the number of metastatic cells per lesion (left panel). Osteolytic bone metastasis lesions are depicted (right panel)
e) X-RAY (CT-scan) images of representative osteolytic lesions per group. […] TRAP positive osteoclast cells (Black) along bone tumor interface from lesions were counted in at least four different fields from each independent mouse and plotted with SD values. […] The statistical differences between groups are evaluated by means of the two-tailed wilcoxon test. […]
To test whether PTHLH mediates c-MAF driven bone metastasis in breast cancer cells, we injected c-MAF expressing MCF7 breast cancer cells intracardiacally and evaluated its capacity to establish and grow bone metastasis in the presence or absence of PTHLH-AN during the span of 47 days. […]

Take “Denosumab: fully human monoclonal antibody which binds to RANKL and prevents its activation, CAS number 615258-40-7”: in the test with bone metastasis, the “evidence of bone metastasis after 5 years” value is on record as “free of any evidence of bone-metastasis”.

Regarding “PTHLH-AN: human PTHLH antagonist peptide (7-34Aa)”, the “induction of osteoclast differentiation in vitro by conditioned media from cells expressing c-MAF” value in test [1] is reported as “prevented”. In test [2], the “extent of the hind limb osteolytic lesions” value is reported as “dramatic reduction” and the “number of osteoclast (TRAP+ cells) at the metastatic lesion perimeter” value is given as “reduction in the number of osteoclast”.

Values taken from US10866241B2, “Method for the prognosis and treatment of cancer metastasis” (Fundació Institut de Recerca Biomèdica (IRB Barcelona), priority 2012, dated 2020).
